Literature values in patent publication US7884090B2, “Compositions and methods for the treatment of arthritis” (priority 1999, dated 2011).

Columns and labels:
[1] = test system: pseudomonas aeruginosa, methicillin-resistant strains of Staph. aureus and Proteus
[2] = test system: Staph haemolyticus, Staph hominis, Acinetobacter Iwoffi and further listed species up to Yersinia enterocolitica; conditions: in vitro

| SMILES | Strains against which active [1] | Strains against which effective [2] |
| --- | --- | --- |
| CCN[C@@H]1C[C@H](N)[C@@H](O[C@H]2OC(CN)=CC[C@H]2N)[C@H](O)[C@H]1O[C@H]1OC[C@](C)(O)[C@H](NC)[C@H]1O [netilmicin] | 85% | – |
| O=C(O)c1cn(C2CC2)c2cc(N3CCNCC3)c(F)cc2c1=O [cipro, ciprofloxacin] | – | 90% |
